Structures can show the parent of a compound that is named as a salt.
Key:
Sendai virus (SeV) [1] = experiment: microbe, parasite or virus in culture; format: cell-based; conditions: for IC50: Respirovirus muris, read-out: IC50, infection rate of SeV
VSV-G = format: cell-based, vesicular stomatitis virus
Ebola trVLP [2] = system: Ebola trVLP
SARS-CoV-2 = experiment: microbe, parasite or virus in culture; format: cell-based; conditions: for IC50: Severe acute respiratory syndrome coronavirus 2, Vero C1008, read-out: IC50, infection rate of SARS-CoV-2
Sendai virus (SeV) [3] = format: cell-based
Ebola trVLP [4] = experiment: microbe, parasite or virus in culture; conditions: Zaire ebolavirus, Huh-7, read-out: IC50, Ebola trVLP infection
[5] = system: pseudo-typed VSV having a SARS-CoV spike protein (SARS-CoV-S); experiment: microbe, parasite or virus in culture; format: cell-based; conditions: Vesicular stomatitis virus, Vero C1008, 20 h, read-out: IC50, infection with pseudo-typed VSV having SARS-CoV spike protein
[6] = system: VSVΔG-SARS2-S (pseudo-type VSV with SARS-CoV-2 spike protein); experiment: microbe, parasite or virus in culture; format: cell-based; conditions: Vesicular stomatitis virus, Vero C1008, 20 h, read-out: IC50, VSVΔG-SARS2-S infection
Wherever Score (number of EGFP-positive cells, value subjected to correction between batches) is given: test concentration or dose not given here.

CC(C)(C)[C@]1(O)CCN2Cc3cccc4c3[C@H](c3ccccc3CC4)[C@@H]2C1.Cl [(+)-Butaclamol hydrochloride]
Score (number of EGFP-positive cells, value subjected to correction between batches) (Sendai virus (SeV) [1]): 226.08

CN(C)CCC=C1c2ccccc2CCc2ccccc21 [Amitriptyline hydrochloride]
Score (number of EGFP-positive cells, value subjected to correction between batches) (Sendai virus (SeV) [1]): 192.61

O=C1CCc2ccc(OCCCCN3CCN(c4cccc(Cl)c4Cl)CC3)cc2N1 [Aripiprazole]
Score (number of EGFP-positive cells, value subjected to correction between batches) (Sendai virus (SeV) [1]): 86.95

Cc1ccc(-c2cc(C(F)(F)F)nn2-c2ccc(S(N)(=O)=O)cc2)cc1 [Celecoxib]
Score (number of EGFP-positive cells, value subjected to correction between batches) (Sendai virus (SeV) [1]): 208.69

O=C(O)COCCN1CCN(C(c2ccccc2)c2ccc(Cl)cc2)CC1 (stereo not drawn) [Cetirizine dihydrochloride]
Score (number of EGFP-positive cells, value subjected to correction between batches) (Sendai virus (SeV) [1]): 202.89

CN(C)CCCN1c2ccccc2Sc2ccc(Cl)cc21 [Chlorpromazine hydrochloride]
Score (number of EGFP-positive cells, value subjected to correction between batches) (Sendai virus (SeV) [1]): 75.36

CCN(CC)CCOc1ccc(/C(=C(/Cl)c2ccccc2)c2ccccc2)cc1 [Clomifene, clomifene]
infection-inhibiting effect on VSV-G (VSV-G): no infection-inhibiting effect was observed | antiviral activity against Ebola trVLP infection (Ebola trVLP [2]): inhibit the Ebola trVLP infection | effect on virus: Ebola virus (Ebola trVLP [2]): + | effect on virus: SARS-CoV-2 (SARS-CoV-2): +

CC1=NS(=O)(=O)c2cc(Cl)ccc2N1 [Diazoxide]
Score (number of EGFP-positive cells, value subjected to correction between batches) (Sendai virus (SeV) [1]): 173.91

CC(CCc1ccc(O)cc1)NCCc1ccc(O)c(O)c1 (stereo not drawn) [Dobutamine hydrochloride]
Score (number of EGFP-positive cells, value subjected to correction between batches) (Sendai virus (SeV) [1]): 69.56

O=c1[nH]c2ccccc2n1CCCN1CCC(n2c(=O)[nH]c3cc(Cl)ccc32)CC1 [Domperidone]
Score (number of EGFP-positive cells, value subjected to correction between batches) (Sendai virus (SeV) [1]): 139.13

CCOC(=O)C1=C(C)NC(C)=C(C(=O)OC)C1c1cccc(Cl)c1Cl (stereo not drawn) [Felodipine]
Score (number of EGFP-positive cells, value subjected to correction between batches) (Sendai virus (SeV) [1]): 133.33

COc1ccc(Cl)cc1C(=O)NCCc1ccc(S(=O)(=O)NC(=O)NC2CCCCC2)cc1 [Glibenclamide]
Score (number of EGFP-positive cells, value subjected to correction between batches) (Sendai virus (SeV) [1]): 202.89

CNCCCC12CCC(c3ccccc31)c1ccccc12 [Maprotiline hydrochloride]
Score (number of EGFP-positive cells, value subjected to correction between batches) (Sendai virus (SeV) [1]): 191.30

Nc1cc(N2CCCCC2)nc(N)[n+]1[O-] [Minoxidil]
Score (number of EGFP-positive cells, value subjected to correction between batches) (Sendai virus (SeV) [1]): 226.08

COc1ccccc1N1CCN(CC(O)COc2cccc3ccccc23)CC1 (stereo not drawn) [Naftopidil]
Score (number of EGFP-positive cells, value subjected to correction between batches) (Sendai virus (SeV) [1]): 214.49

O=C(NCCO[N+](=O)[O-])c1cccnc1 [Nicorandil]
Score (number of EGFP-positive cells, value subjected to correction between batches) (Sendai virus (SeV) [1]): 185.50

CC(COc1ccccc1)N(CCCl)Cc1ccccc1 (stereo not drawn) [Phenoxybenzamine hydrochloride]
Score (number of EGFP-positive cells, value subjected to correction between batches) (Sendai virus (SeV) [1]): 162.31

CCc1ccc(CCOc2ccc(CC3SC(=O)NC3=O)cc2)nc1 (stereo not drawn) [Pioglitazone, pioglitazone]
amount of the EGFP mRNA (Sendai virus (SeV) [3]): significantly and markedly reduced | antiviral activity against Ebola trVLP infection (Ebola trVLP [2]): did not show significant antiviral activity | effect on virus: Ebola virus (Ebola trVLP [2]): − | antiviral activity against SARS-CoV-2 infection (SARS-CoV-2): partially suppressed virus infection at a high concentration | effect on virus: SARS-CoV-2 (SARS-CoV-2): + | Score (number of EGFP-positive cells, value subjected to correction between batches) (Sendai virus (SeV) [1]): 173.91 | effect on virus: Sendai virus (Sendai virus (SeV) [1]): + | IC50 (Sendai virus (SeV) [1]): 4.9 µM

O=C(Nc1cccc2c(=O)cc(-c3nnn[nH]3)oc12)c1ccc(OCCCCc2ccccc2)cc1 [Pranlukast, pranlukast]
amount of the EGFP mRNA (Sendai virus (SeV) [3]): significantly and markedly reduced | antiviral activity against Ebola trVLP infection (Ebola trVLP [2]): did not show significant antiviral activity | effect on virus: Ebola virus (Ebola trVLP [2]): − | antiviral activity against SARS-CoV-2 infection (SARS-CoV-2): tended to reduce the infection rate of SARS-CoV-2, which was not significant | effect on virus: SARS-CoV-2 (SARS-CoV-2): N.S. | Score (number of EGFP-positive cells, value subjected to correction between batches) (Sendai virus (SeV) [1]): 162.31 | effect on virus: Sendai virus (Sendai virus (SeV) [1]): + | IC50 (Sendai virus (SeV) [1]): 5 µM

CC(CN1c2ccccc2Sc2ccccc21)N(C)C (stereo not drawn) [Promethazine hydrochloride]
Score (number of EGFP-positive cells, value subjected to correction between batches) (Sendai virus (SeV) [1]): 231.88

CCCCC[C@H](O)/C=C/[C@H]1[C@H](O)CC(=O)[C@@H]1C/C=C\CCCC(=O)O [Prostaglandin E2]
Score (number of EGFP-positive cells, value subjected to correction between batches) (Sendai virus (SeV) [1]): 208.69

COc1ccc(CN(CCN(C)C)c2ccccn2)cc1 [Pyrilamine maleate]
Score (number of EGFP-positive cells, value subjected to correction between batches) (Sendai virus (SeV) [1]): 185.50

OCCOCCN1CCN(C2=Nc3ccccc3Sc3ccccc32)CC1 [Quetiapine fumarate]
Score (number of EGFP-positive cells, value subjected to correction between batches) (Sendai virus (SeV) [1]): 133.33

O=C(c1ccc(OCCN2CCCCC2)cc1)c1c(-c2ccc(O)cc2)sc2cc(O)ccc12 [Raloxifene hydrochloride]
Score (number of EGFP-positive cells, value subjected to correction between batches) (Sendai virus (SeV) [1]): 57.97

O=C(c1ccc(OCCN2CCCCC2)cc1)c1c(-c2ccc(O)cc2)sc2cc(O)ccc12 [Raloxifene, raloxifene]
amount of the EGFP mRNA (Sendai virus (SeV) [3]): significantly and markedly reduced | infection-inhibiting effect on VSV-G (VSV-G): no infection-inhibiting effect was observed | effect on virus: Ebola virus (Ebola trVLP [2]): + | infection-inhibiting activity versus cytotoxicity (cell viability) (Ebola trVLP [2]): significant dissociation between the infection-inhibiting activity and the cytotoxicity | IC50 (Ebola trVLP [4]): 0.88 µM | IC50 [5]: 4.1 µM | effect on virus: SARS-CoV-2 (SARS-CoV-2): + | IC50 (SARS-CoV-2): 7.1 µM | IC50 [6]: 3.9 µM | effect on virus: Sendai virus (Sendai virus (SeV) [1]): + | IC50 (Sendai virus (SeV) [1]): 4.3 µM

CO[C@H]1/C=C/O[C@@]2(C)Oc3c(C)c(O)c4c(O)c(c(/C=N/N5CCN(C)CC5)c(O)c4c3C2=O)NC(=O)/C(C)=C\C=C\[C@H](C)[C@H](O)[C@@H](C)[C@@H](O)[C@@H](C)[C@H](OC(C)=O)[C@@H]1C [Rifampin, rifampin]
amount of the EGFP mRNA (Sendai virus (SeV) [3]): significantly and markedly reduced | antiviral activity against Ebola trVLP infection (Ebola trVLP [2]): did not show significant antiviral activity | effect on virus: Ebola virus (Ebola trVLP [2]): − | antiviral activity against SARS-CoV-2 infection (SARS-CoV-2): tended to reduce the infection rate of SARS-CoV-2, which was not significant | effect on virus: SARS-CoV-2 (SARS-CoV-2): N.S. | Score (number of EGFP-positive cells, value subjected to correction between batches) (Sendai virus (SeV) [1]): 75.36 | effect on virus: Sendai virus (Sendai virus (SeV) [1]): + | IC50 (Sendai virus (SeV) [1]): 3.9 µM

CS(=O)(=O)c1ccc(C2=C(c3ccccc3)C(=O)OC2)cc1 [Rofecoxib]
Score (number of EGFP-positive cells, value subjected to correction between batches) (Sendai virus (SeV) [1]): 202.89

CC1=C(CC(=O)O)c2cc(F)ccc2/C1=C\c1ccc([S+](C)[O-])cc1 (stereo not drawn) [Sulindac]
Score (number of EGFP-positive cells, value subjected to correction between batches) (Sendai virus (SeV) [1]): 127.53

CC/C(=C(\c1ccccc1)c1ccc(OCCN(C)C)cc1)c1ccccc1 [Tamoxifen, tamoxifen]
antiviral activity against Ebola trVLP infection (Ebola trVLP [2]): inhibit the Ebola trVLP infection | effect on virus: Ebola virus (Ebola trVLP [2]): + | effect on virus: SARS-CoV-2 (SARS-CoV-2): +

CSc1ccc2c(c1)N(CCC1CCCCN1C)c1ccccc1S2 (stereo not drawn) [Thioridazine hydrochloride]
Score (number of EGFP-positive cells, value subjected to correction between batches) (Sendai virus (SeV) [1]): 217.78

CN(C)CCOc1ccc(/C(=C(/CCCl)c2ccccc2)c2ccccc2)cc1 [Toremifene, toremifene]
infection-inhibiting effect on VSV-G (VSV-G): no infection-inhibiting effect was observed | antiviral activity against Ebola trVLP infection (Ebola trVLP [2]): inhibit the Ebola trVLP infection | effect on virus: Ebola virus (Ebola trVLP [2]): + | IC50 [5]: 7.3 µM | effect on virus: SARS-CoV-2 (SARS-CoV-2): + | IC50 (SARS-CoV-2): 10 µM | IC50 [6]: 5.3 µM

COc1cc(C(=O)NS(=O)(=O)c2ccccc2C)ccc1Cc1cn(C)c2ccc(NC(=O)OC3CCCC3)cc12 [Zafirlukast]
Score (number of EGFP-positive cells, value subjected to correction between batches) (Sendai virus (SeV) [1]): 156.52

CC(c1cc2ccccc2s1)N(O)C(N)=O (stereo not drawn) [Zileuton, zileuton]
amount of the EGFP mRNA (Sendai virus (SeV) [3]): significantly and markedly reduced | antiviral activity against Ebola trVLP infection (Ebola trVLP [2]): did not show significant antiviral activity | effect on virus: Ebola virus (Ebola trVLP [2]): − | antiviral activity against SARS-CoV-2 infection (SARS-CoV-2): did not exhibit significant antiviral activity | effect on virus: SARS-CoV-2 (SARS-CoV-2): − | Score (number of EGFP-positive cells, value subjected to correction between batches) (Sendai virus (SeV) [1]): 214.49 | effect on virus: Sendai virus (Sendai virus (SeV) [1]): + | IC50 (Sendai virus (SeV) [1]): 4.5 µM

CCC(CC)COC(=O)[C@H](C)N[P@](=O)(OC[C@H]1O[C@@](C#N)(c2ccc3c(N)ncnn23)[C@H](O)[C@@H]1O)Oc1ccccc1 [remdesivir]
amount of the EGFP mRNA (Sendai virus (SeV) [3]): substantially not detected | IC50 (Ebola trVLP [4]): 0.12 µM | IC50 (SARS-CoV-2): 0.89 µM | IC50 (Sendai virus (SeV) [1]): 0.077 µM

Ifenprodil tartrate
Score (number of EGFP-positive cells, value subjected to correction between batches) (Sendai virus (SeV) [1]): 214.49

Reference: patent US20230147364A1, “PROPHYLACTIC OR THERAPEUTIC AGENT FOR RNA VIRUS-RELATED DISEASES” (priority 2020, published 2023)
